Results reported in patent EP4741392A1, “1H-PYRAZOLO[4,3-C]PYRIDINE COMPOUND, AND COMPOSITION THEREOF AND USE THEREOF” (Shenzhen TargetRx Co., Ltd., priority 2023, dated 2025).
Read-outs that look alike come from different tables or passages of the source.

Assays:
NIH/3T3 BTK WT cells = assay: Phosphor-BTK(Y223) assay, adherent cells; format: cell-based; conditions: read-out: NIH/3T3 BTK-WT pBTK
How it was run: (§1)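 NIH/3T3 cells expressing WT or C481S BTK were pretreated with compound for 0.5 h at 37 °C, then stimulated with 1 mM Na3VO4 (final) for 2 h. Lysates were assayed by HTRF for p-BTK Y223 using the 665/620 nm ratio. IC50 was obtained by nonlinear fit of % inhibition versus 0.5% DMSO control.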

NIH/3T3 BTK C481S cells = assay: Phosphor-BTK(Y223) assay, adherent cells; format: cell-based; conditions: read-out: NIH/3T3 BTK-C481S pBTK
How it was run: as §1

BTK T474I = molecular target: T1, BTK T474I (Homo sapiens, UniProt Q06187, T474I); assay: Kinase activity inhibition assay (HTRF TK Kit); format: biochemical
T1 construct: purchased SignalChem B10-12HH
T1 sequence (Q06187 whole entry T474I): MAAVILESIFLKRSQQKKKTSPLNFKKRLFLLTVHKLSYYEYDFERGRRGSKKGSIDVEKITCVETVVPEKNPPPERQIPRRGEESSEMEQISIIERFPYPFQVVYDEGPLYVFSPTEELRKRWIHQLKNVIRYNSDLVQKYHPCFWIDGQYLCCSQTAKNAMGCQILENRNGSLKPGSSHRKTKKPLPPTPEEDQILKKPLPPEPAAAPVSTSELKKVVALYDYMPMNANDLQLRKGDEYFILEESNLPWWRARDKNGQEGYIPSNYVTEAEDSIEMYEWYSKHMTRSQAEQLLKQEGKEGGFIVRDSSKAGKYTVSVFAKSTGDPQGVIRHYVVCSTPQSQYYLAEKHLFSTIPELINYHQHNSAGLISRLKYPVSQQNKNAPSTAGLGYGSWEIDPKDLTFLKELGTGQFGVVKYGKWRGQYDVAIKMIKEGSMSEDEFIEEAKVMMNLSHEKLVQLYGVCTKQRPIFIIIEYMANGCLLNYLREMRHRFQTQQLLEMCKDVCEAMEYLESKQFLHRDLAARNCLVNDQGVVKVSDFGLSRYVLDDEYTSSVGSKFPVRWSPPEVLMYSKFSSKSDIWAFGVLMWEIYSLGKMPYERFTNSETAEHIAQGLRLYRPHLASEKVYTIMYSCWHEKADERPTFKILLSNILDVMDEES
Excerpt: (§2) In this assay, the HTRF TK Kit (Catalog No. 62TK0PEC) provided by Cisbio was used to detect the inhibitory activity of compounds on BTK kinase, BTK T474I kinase and BTK C481 S kinase and the selectivity of compounds relative to EGFR, ITK and TEC kinases.
(§3) Reagents and consumables: BTK kinase (Invitrogen, Catalog No. PV3587), BTK C481S (Carna, Product No. 08-547), BTK T474I(SignalChem Product No. B10-12HH), ITK (Cama, Product No. 08-181), EGFR (Cama, Product No. 08-115), TEC (Carna, Product No. 08-182), HTRF-TK kit (Cisbio, Product No. 62TK0PEC), MgCl2 (Sigma, Product No. M1028), MnCl2 (Sigma, Product No. M1787), DTT (Sigma, Product No. D0632), ATP (Sigma, Product No. A7699-1g), DMSO (Sigma, Product No. D2650), 384-well plate (PE, Product No. 6008280).
(§4) The entire operation steps were carried out on ice, and the total reaction volume was 10µL. A compound (4µL), substrate and ATP (4µL), and kinase (2µL) were added in sequence to a 384-well plate, and the plate was shaken for 30 seconds. The mixture was reacted at room temperature for an appropriate time, and then the detection reagent was added. The resulting mixture was reacted at room temperature for 1 hour, and then the plate was assayed with a microplate reader. The specific steps were as follows: • a) a 1 × kinase buffer solution required for the kinase assay was calculated according to the amount of the test compound, and prepared as needed; • b) 2.5 × working concentration of a compound was prepared, 100-fold gradient concentration solutions of a compound were diluted by 40 × to the desired concentration, respectively, mixed well, and added to each well at 4 µL per well; • c) 5 × working concentration of the substrate and ATP were prepared, mixed in a ratio of 1:1 before being added to the 384-well plate, and added to each well at 4 µL per well; • d) 5 × working concentration of a kinase was prepared, 2 µL of which was added to each well; • e) the plate was shaken on a microplate shaker for 30 seconds, sealed with a sealing membrane, and the mixture was reacted at room temperature for an appropriate time; • f) 4 × working concentration of streptavidin XL-665 and TK antibody-cryptate compound were prepared, mixed in a ratio of 1:1 before being added to the 384-well plate, and added to each well at 10 µL per well; • g) the mixture was reacted at room temperature for 1 hour, and then the plate was read; • h) the wells with only substrate, ATP and 1% DMSO added but no kinase were blank control wells, and the wells with only substrate, ATP, 1% DMSO and kinase were positive control wells.
(§5) Readings: The values of 620 nm (cryptate) and 665 nm (XL665) were read with a BioTek Synerg Neo2 microplate reader, the ratio of 665/620 for each well was calculated, and the data were exported.
(§6) Data analysis: IC50 was calculated using GraphPad Prism 7.0 software.
(§7) The IC50 (half-maximal inhibitory concentration) of the compound was obtained using the following nonlinear fitting formula: Y = Bottom + (Top−Bottom)/(1+10^(∧)((LogIC50−X)*HillSlope)) [formula] • X: Log value of the compound concentration • Y: Inhibition rate (% inhibition) • Top: Maximum response • Bottom: Baseline response • HillSlope: Slope of the curve
(§8) The formula for calculating kinase inhibition rate (inhibition rate %) was: [formula]

BTK kinase = molecular target: T2, BTK kinase (Homo sapiens, UniProt Q06187); assay: Kinase activity inhibition assay (HTRF TK Kit); format: biochemical
T2 construct: purchased Invitrogen PV3587
T2 sequence (Q06187 whole entry): as the sequence (Q06187 whole entry T474I) above, with I474T counted along it
Excerpt: as §2, §3, §4, §5, §6, §7, §8

BTK C481S = molecular target: T3, BTK C481S (Homo sapiens, UniProt Q06187, C481S); assay: Kinase activity inhibition assay (HTRF TK Kit); format: biochemical
T3 construct: purchased Carna 08-547
T3 sequence (Q06187 whole entry C481S): as the sequence (Q06187 whole entry T474I) above, with I474T, C481S counted along it
Excerpt: as §2, §3, §4, §5, §6, §7, §8

[1] = Mus musculus, NIH3T3, phosphorylated BTK Y223, NIH/3T3 BTK WT cells
[2] = Mus musculus, NIH3T3, phosphorylated BTK Y223, NIH/3T3 BTK C481S cells

SMILES	IC50 (NIH/3T3 BTK WT cells; [1]) [nM]	IC50 (NIH/3T3 BTK C481S cells; [2]) [nM]	IC50 (BTK T474I) [nM]	IC50 (BTK kinase) [nM]	IC50 (BTK C481S) [nM]	IC50 (NIH/3T3 BTK WT cells; phosphorylated BTK Y223, NIH/3T3 BTK WT cells) [nM]	IC50 (NIH/3T3 BTK C481S cells; phosphorylated BTK Y223, NIH/3T3 BTK C481S cells) [nM]
COc1ccc(F)cc1C(=O)NCc1ccc(-c2ncc(-c3ncc(C(F)(F)F)cn3)c3[nH]nc(N)c23)cc1 [Example 42, N-(4-(3-amino-7-(5-(trifluoromethyl)pyrimidin-2-yl)-1H-pyrazolo[4,3-c]pyridin-4-yl)benzyl)-5-fluoro-2-methoxybenzamide]	≤ 5	10 to 50	> 500	1 to 5	1 to 5	–	–
COc1ccc(F)cc1C(=O)NCc1ccc(-c2ncc(-c3ccc(C(=O)N4C[C@H](C)O[C@@H](C)C4)cn3)c3[nH]nc(N)c23)cc1 [Example 53, N-(4-(3-amino-7-(5-((2S,6S)-2,6-dimethylmorpholine-4-carbonyl)pyridin-2-yl)-1H-pyrazolo[4,3-c]pyridin-4-yl)benzyl)-5-fluoro-2-methoxybenzamide]	≤ 5	≤ 5	50 to 500	1 to 5	1 to 5	–	–
COc1ccc(F)cc1C(=O)NCc1ccc(-c2nc(C(C)C(F)(F)F)cc3[nH]nc(N)c23)cc1 (centres unmarked) [Example 1, N-(4-(3-amino-6-(1,1,1-trifluoropropan-2-yl)-1H-pyrazolo[4,3-c]pyridin-4-yl)benzyl)-5-fluoro-2-methoxybenzamide]	10 to 50	10 to 50	> 500	5 to 50	5 to 50	–	–
COc1ccc(F)cc1C(=O)NCc1ccc(-c2nc(C)c(-c3ncccn3)c3[nH]nc(N)c23)cc1 [Example 84, N-(4-(3-amino-6-methyl-7-(pyrimidin-2-yl)-1H-pyrazolo[4,3-c]pyridin-4-yl)benzyl)-5-fluoro-2-methoxybenzamide]	5 to 10	10 to 50	50 to 500	5 to 50	5 to 50	–	–
COc1ccc(F)cc1C(=O)NCc1ccc(-c2ncc(-c3ccn(C)n3)c3[nH]nc(N)c23)cc1 [Example 23, N-(4-(3-amino-7-(1-methyl-1H-pyrazol-3-yl)-1H-pyrazolo[4,3-c]pyridin-4-yl)benzyl)-5-fluoro-2-methoxybenzamide]	≤ 5	≤ 5	50 to 500	≤ 1	≤ 1	–	–
COc1ccc(F)cc1C(=O)NCc1ccc(-c2ncc(-c3ccccn3)c3[nH]nc(N)c23)cc1 [Example 15, N-(4-(3-amino-7-(pyridin-2-yl)-1H-pyrazolo[4,3-c]pyridin-4-yl)benzyl)-5-fluoro-2-methoxybenzamide]	≤ 5	5 to 10	50 to 500	≤ 1	≤ 1	–	–
COc1ccc(F)cc1C(=O)NCc1ccc(-c2ncc(-c3ccc(OCCN4CCCC4)cn3)c3[nH]nc(N)c23)cc1 [Example 62, N-(4-(3-amino-7-(5-(2-(pyrrolidin-1-yl)ethoxy)pyridin-2-yl)-1H-pyrazolo[4,3-c]pyridin-4-yl)benzyl)-5-fluoro-2-methoxybenzamide]	≤ 5	≤ 5	5 to 50	1 to 5	1 to 5	–	–
COc1ccc(F)cc1C(=O)NCc1ccc(-c2ncc(-c3cnn4cccnc34)c3[nH]nc(N)c23)cc1 [Example 70, N-(4-(3-amino-7-(pyrazolo[1,5-a]pyrimidin-3-yl)-1H-pyrazolo[4,3-c]pyridin-4-yl)benzyl)-5-fluoro-2-methoxybenzamide]	≤ 5	≤ 5	50 to 500	1 to 5	1 to 5	–	–
COc1ccc(F)cc1C(=O)NCc1ccc(-c2ncc(-c3cn4ccnc4cn3)c3[nH]nc(N)c23)cc1 [Example 50, N-(4-(3-amino-7-(imidazo[1,2-a]pyrazin-6-yl)-1H-pyrazolo[4,3-c]pyridin-4-yl)benzyl)-5-fluoro-2-methoxybenzamide]	≤ 5	5 to 10	50 to 500	1 to 5	1 to 5	–	–
COc1ccc(F)cc1C(=O)NCc1ccc(-c2ncc(-c3cc4ccccn4n3)c3[nH]nc(N)c23)cc1 [Example 69, N-(4-(3-amino-7-(pyrazolo[1,5-a]pyridin-2-yl)-1H-pyrazolo[4,3-c]pyridin-4-yl)benzyl)-5-fluoro-2-methoxybenzamide]	≤ 5	≤ 5	5 to 50	≤ 1	≤ 1	–	–
COc1ccc(F)cc1C(=O)NCc1ccc(-c2nc(C(C)C(F)(F)F)cc3[nH]nc(N)c23)cc1 (single isomer, unassigned) [Example 3, N-(4-(3-amino-6-(1,1,1-trifluoropropan-2-yl)-1H-pyrazolo[4,3-c]pyridin-4-yl)benzyl)-5-fluoro-2-methoxybenzamide]	–	–	50 to 500	1 to 5	1 to 5	≤ 5	5 to 10
COc1ccc(F)cc1C(=O)NCc1ccc(-c2ncc(-c3ccc(N4CCN(C)CC4)cn3)c3[nH]nc(N)c23)cc1 [Example 73, N-(4-(3-amino-7-(5-(4-methylpiperazin-1-yl)pyridin-2-yl)-1H-pyrazolo[4,3-c]pyridin-4-yl)benzyl)-5-fluoro-2-methoxybenzamide]	≤ 5	≤ 5	5 to 50	≤ 1	≤ 1	–	–
COc1ccc(F)cc1C(=O)NCc1ccc(-c2ncc(-c3ccc(C(F)(F)F)cn3)c3[nH]nc(N)c23)cc1 [Example 24, N-(4-(3-amino-7-(5-(trifluoromethyl)pyridin-2-yl)-1H-pyrazolo[4,3-c]pyridin-4-yl)benzyl)-5-fluoro-2-methoxybenzamide]	≤ 5	≤ 5	50 to 500	5 to 50	5 to 50	–	–
COc1ccc(F)cc1C(=O)NCc1ccc(-c2ncc(-c3ccncn3)c3[nH]nc(N)c23)cc1 [Example 19]	≤ 5	5 to 10	50 to 500	1 to 5	1 to 5	–	–
COc1ccc(F)cc1C(=O)NCc1ccc(-c2nc(C(C)C(F)(F)F)c(-c3ccn(C)n3)c3[nH]nc(N)c23)cc1 (centres unmarked) [Example 6, N-(4-(3-amino-7-(1-methyl-1H-pyrazol-3-yl)-6-(1,1,1-trifluoropropan-2-yl)-1H-pyrazolo[4,3-c]pyridin-4-yl)benzyl)-5-fluoro-2-methoxybenzamide]	≤ 5	5 to 10	5 to 50	1 to 5	1 to 5	–	–
COc1ccc(F)cc1C(=O)NCc1ccc(-c2ncc(-c3ccc(C(=O)N4CCOCC4)cn3)c3[nH]nc(N)c23)cc1 [Example 52, N-(4-(3-amino-7-(5-(morpholine-4-carbonyl)pyridin-2-yl)-1H-pyrazolo[4,3-c]pyridin-4-yl)benzyl)-5-fluoro-2-methoxybenzamide]	≤ 5	≤ 5	5 to 50	≤ 1	≤ 1	–	–
